Common to all, as to assay: Binding region mapping, flow cytometry on transfected HEK293-6e cells
Details in all cases: 24 hours at 4° C.

The target of assay [1] is T1, Construct 6 (human NaPi2b deletion, region 317-333) (Homo sapiens, UniProt O95436, DEL317-333).
T1 construct: host or cells: HEK293-6e
T1 sequence (O95436 with tags, fused parts or gaps DEL317-333): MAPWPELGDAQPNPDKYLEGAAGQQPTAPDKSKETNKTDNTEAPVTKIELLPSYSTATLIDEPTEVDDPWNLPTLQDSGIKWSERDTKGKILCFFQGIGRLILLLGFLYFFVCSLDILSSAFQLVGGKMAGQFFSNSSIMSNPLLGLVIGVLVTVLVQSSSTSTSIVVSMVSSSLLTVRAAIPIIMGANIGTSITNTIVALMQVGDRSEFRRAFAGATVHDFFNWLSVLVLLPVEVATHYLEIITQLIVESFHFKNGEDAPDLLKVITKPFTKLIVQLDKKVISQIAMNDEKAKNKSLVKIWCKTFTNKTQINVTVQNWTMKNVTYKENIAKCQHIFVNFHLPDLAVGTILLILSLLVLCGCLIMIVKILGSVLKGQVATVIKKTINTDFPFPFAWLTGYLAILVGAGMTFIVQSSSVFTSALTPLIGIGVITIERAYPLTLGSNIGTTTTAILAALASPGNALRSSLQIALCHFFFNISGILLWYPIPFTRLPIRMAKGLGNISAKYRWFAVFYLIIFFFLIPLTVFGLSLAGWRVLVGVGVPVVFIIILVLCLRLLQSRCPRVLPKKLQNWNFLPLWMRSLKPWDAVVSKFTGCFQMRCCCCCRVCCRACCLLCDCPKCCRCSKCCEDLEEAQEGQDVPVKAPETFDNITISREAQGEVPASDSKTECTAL
An excerpt: (§1) NaPi2b constructs containing deletions in the main extracellular loop of human NaPi2b, as well as chimeric NaPi2b/NaPi2c constructs concerning this main loop, were generated.
(§2) As a complementary strategy, two additional constructs were designed in which the relevant region of the main loop was deleted such as to mimic NaPi2c/NaPi2a main extracellular loop (Constructs 6-7 in Table 52.1). Clones were generated at GenScript Biotech (Piscataway, NJ).
(§3) Constructs were expressed in HEK293-6e cells as follows. Cells were maintained under standard culture conditions (37° C./5% CO2) with shaking at 110 rpm for suspension and cultured in FreeStyle™ 293 Expression Medium (Thermo Fisher Scientific, Waltham, MA) supplemented with 1% fetal bovine serum (Thermo Fisher Scientific, Waltham, MA) and 1× Penicillin-Streptomycin (Thermo Fisher Scientific, Waltham, MA). Cells were transfected with clones expressing the constructs listed in Table 52.1, at 1 μg of DNA per 1 million cells, using 293Fectin™ Transfection Reagent (Thermo Fisher Scientific, Waltham, MA) and Opti-MEM™ I Reduced Serum Medium (Thermo Fisher Scientific, Waltham, MA), and incubated for 24 hours under standard culture conditions (37° C./5% CO2/110 rpm). Following transfection, cells were seeded at 50,000 cells/well in conical-bottom 96-well plates and treated with a serial dilution of test antibody for 24 hours at 4° C. to prevent internalization. Cells were treated with final concentrations of all humanized antibodies of 200, 20, or 2 nM. Cells were treated with final concentrations of the reference anti-NaPi2a rabbit antibody of 50, 5, or 0.5 nM. […] Following incubation and washing, fluorescence was detected by flow cytometry on a BD LSRFortessa™ Cell Analyzer (BD Biosciences, Franklin Lake, NJ) with 1,000 minimum events collected per well. […] Background-subtracted AF647 Mean Fluorescence Intensity (MFI) values were calculated by subtracting the average MFI of three technical replicates of unstained (no primary antibody) cells.

For assay [2], the system named is Construct 4 (chimeric human NaPi2b, region 341-358).
Text: as §1, §2, §3

Assay [3] deals with T2, Construct 7 (human NaPi2b deletion, region 317-326) (Homo sapiens, UniProt O95436, DEL317-326).
T2 construct: host or cells: HEK293-6e
T2 sequence (O95436 with tags, fused parts or gaps DEL317-326): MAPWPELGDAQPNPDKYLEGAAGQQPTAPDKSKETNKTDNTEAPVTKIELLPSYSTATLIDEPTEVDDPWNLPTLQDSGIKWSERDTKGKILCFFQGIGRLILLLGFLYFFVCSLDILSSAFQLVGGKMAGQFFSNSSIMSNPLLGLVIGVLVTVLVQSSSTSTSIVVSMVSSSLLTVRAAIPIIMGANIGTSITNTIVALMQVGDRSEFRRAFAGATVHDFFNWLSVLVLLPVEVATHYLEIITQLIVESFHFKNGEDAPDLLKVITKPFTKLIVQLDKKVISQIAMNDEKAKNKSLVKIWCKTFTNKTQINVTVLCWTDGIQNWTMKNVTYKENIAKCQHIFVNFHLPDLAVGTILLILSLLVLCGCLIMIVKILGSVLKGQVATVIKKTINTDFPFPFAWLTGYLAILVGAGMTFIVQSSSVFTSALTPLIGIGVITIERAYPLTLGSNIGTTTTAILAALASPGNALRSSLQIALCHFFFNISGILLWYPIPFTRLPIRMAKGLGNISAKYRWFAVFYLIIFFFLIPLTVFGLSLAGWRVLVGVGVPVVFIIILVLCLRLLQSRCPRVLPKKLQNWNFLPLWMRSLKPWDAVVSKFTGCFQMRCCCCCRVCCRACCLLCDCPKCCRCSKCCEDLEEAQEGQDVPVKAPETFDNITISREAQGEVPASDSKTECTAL
Text: as §1, §2, §3

The subject of assay [4] is Construct 3 (chimeric human NaPi2b, region 304-321).
Text: as §1, §2, §3

The test system of assay [5] is Construct 2 (chimeric human NaPi2b, region 280-301).
Text: as §1, §2, §3

For assay [6], the system named is Construct 1 (chimeric human NaPi2b, region 239-259).
Text: as §1, §2, §3

Experimental findings from US20260232827A1, “ANTIBODY-DRUG CONJUGATES TARGETING NAPI2B AND METHODS OF USE” (Zymeworks BC Inc., priority 2023, published 2026) are described below.

For palivizumab [palivizumab (v21995)], the “Background-Subtracted AF647 Mean Fluorescence Intensity” value in assay [1] (antibody 2.0 nM) is 11; in assay [1] (antibody 20.0 nM), 1; in assay [1] (antibody 200.0 nM), 2; in assay [2] (antibody 2.0 nM), 1; in assay [2] (antibody 20.0 nM), 22; in assay [2] (antibody 200.0 nM), 12. Also, the “Background-Subtracted AF647 Mean Fluorescence Intensity” value in assay [3] (antibody 2.0 nM) is on record as -34; in assay [3] (antibody 20.0 nM) it was -85; in assay [3] (antibody 200.0 nM), -97; in assay [4] (antibody 2.0 nM), 19; in assay [4] (antibody 20.0 nM), 39; in assay [4] (antibody 200.0 nM) it was -5. Also, the “Background-Subtracted AF647 Mean Fluorescence Intensity” value is listed as -69 in assay [5] (antibody 2.0 nM); -64 in assay [5] (antibody 20.0 nM); -30 in assay [5] (antibody 200.0 nM); -30 in assay [6] (antibody 2.0 nM); -27 in assay [6] (antibody 20.0 nM); 12 in assay [6] (antibody 200.0 nM).
